Assay results: publication PMC9856672, “SGC-CAMKK2-1: A Chemical Probe for CAMKK2” (Cells, 2023)

Legend:
MARK3 [1] = molecular target: T1, MARK3 (Homo sapiens, UniProt P27448); assay: KINOMEscan at 1 μM, MARK3; format: binding; settings: 1000 nM, read-out: Percent Control
T1 construct: purchased Eurofins DiscoverX KINOMEscan
Text: (§1) Supplement cells-12-00287-s001.zip/File S2. KinomeScan data for the CAMKK2 probe and negative control.xlsx, sheet "SGC-CAMKK2-1N" | column: Percent Control

PIP5K2B = molecular target: T2, PIP5K2B (Homo sapiens, UniProt P78356); assay: KINOMEscan at 1 μM, PIP5K2B; format: binding; settings: 1000 nM, read-out: Percent Control
T2 construct: purchased Eurofins DiscoverX KINOMEscan
Text: as §1

PDGFRA = molecular target: T3, PDGFRA (Homo sapiens, UniProt P16234); assay: KINOMEscan at 1 μM, PDGFRA; format: binding; settings: 1000 nM, read-out: Percent Control
T3 construct: purchased Eurofins DiscoverX KINOMEscan
Text: as §1

WEE2 = molecular target: T4, WEE2 (Homo sapiens, UniProt P0C1S8); assay: KINOMEscan at 1 μM, WEE2; format: binding; settings: 1000 nM, read-out: Percent Control
T4 construct: purchased Eurofins DiscoverX KINOMEscan
Text: as §1

ALK(C1156Y) = molecular target: T5, ALK(C1156Y) (Homo sapiens, UniProt Q9UM73, C1156Y); assay: KINOMEscan at 1 μM, ALK(C1156Y); format: binding; settings: 1000 nM, read-out: Percent Control
T5 construct: purchased Eurofins DiscoverX KINOMEscan
Text: as §1

TSSK1B = molecular target: T6, TSSK1B (Homo sapiens, UniProt Q9BXA7); assay: KINOMEscan at 1 μM, TSSK1B; format: binding; settings: 1000 nM, read-out: Percent Control
T6 construct: purchased Eurofins DiscoverX KINOMEscan
Text: as §1

TIE2 = molecular target: T7, TIE2 (Homo sapiens, UniProt Q02763); assay: KINOMEscan at 1 μM, TIE2; format: binding; settings: 1000 nM, read-out: Percent Control
T7 construct: purchased Eurofins DiscoverX KINOMEscan
Text: as §1

IKK-epsilon = molecular target: T8, IKK-epsilon (Homo sapiens, UniProt Q14164); assay: KINOMEscan at 1 μM, IKK-epsilon; format: binding; settings: 1000 nM, read-out: Percent Control
T8 construct: purchased Eurofins DiscoverX KINOMEscan
Text: as §1

RET(V804L) [2] = molecular target: T9, RET(V804L) (Homo sapiens, UniProt P07949, V804L); assay: KINOMEscan at 1 μM, RET(V804L); format: binding; settings: 1000 nM, read-out: Percent Control
T9 construct: purchased Eurofins DiscoverX KINOMEscan
Text: as §1

PFTAIRE2 = molecular target: T10, PFTAIRE2 (Homo sapiens, UniProt Q96Q40); assay: KINOMEscan at 1 μM, PFTAIRE2; format: binding; settings: 1000 nM, read-out: Percent Control
T10 construct: purchased Eurofins DiscoverX KINOMEscan
Text: as §1

CSK = molecular target: T11, CSK (Homo sapiens, UniProt P41240); assay: KINOMEscan at 1 μM, CSK; format: binding; settings: 1000 nM, read-out: Percent Control
T11 construct: purchased Eurofins DiscoverX KINOMEscan
Text: as §1

HUNK = molecular target: T12, HUNK (Homo sapiens, UniProt P57058); assay: KINOMEscan at 1 μM, HUNK; format: binding; settings: 1000 nM, read-out: Percent Control
T12 construct: purchased Eurofins DiscoverX KINOMEscan
Text: as §1

YES = molecular target: T13, YES (Homo sapiens, UniProt P07947); assay: KINOMEscan at 1 μM, YES; format: binding; settings: 1000 nM, read-out: Percent Control
T13 construct: purchased Eurofins DiscoverX KINOMEscan
Text: as §1

PHKG2 = molecular target: T14, PHKG2 (Homo sapiens, UniProt P15735); assay: KINOMEscan at 1 μM, PHKG2; format: binding; settings: 1000 nM, read-out: Percent Control
T14 construct: purchased Eurofins DiscoverX KINOMEscan
Text: as §1

PIM3 = molecular target: T15, PIM3 (Homo sapiens, UniProt Q86V86); assay: KINOMEscan at 1 μM, PIM3; format: binding; settings: 1000 nM, read-out: Percent Control
T15 construct: purchased Eurofins DiscoverX KINOMEscan
Text: as §1

CDK4 = molecular target: T16, CDK4 (Homo sapiens, UniProt P11802); assay: KINOMEscan 1 μM, CDK4; format: binding; settings: 1000 nM; Entrez CDK4; read-out: Percent Control
T16 construct: purchased Eurofins DiscoverX KINOMEscan
Text: (§2) Supplement cells-12-00287-s001.zip/File S2. KinomeScan data for the CAMKK2 probe and negative control.xlsx, sheet "SGC-CAMKK2-1" | column: Percent Control

RET(V804L) [3] = molecular target: T9, RET(V804L); assay: KINOMEscan 1 μM, RET(V804L); format: binding; settings: 1000 nM; Entrez RET; read-out: Percent Control
Text: as §2

PKN1 = molecular target: T17, PKN1 (Homo sapiens, UniProt Q16512); assay: KINOMEscan 1 μM, PKN1; format: binding; settings: 1000 nM; Entrez PKN1; read-out: Percent Control
T17 construct: purchased Eurofins DiscoverX KINOMEscan
Text: as §2

EGFR(E746-A750del) = molecular target: T18, EGFR(E746-A750del) (Homo sapiens, UniProt P00533, DEL746-750); assay: KINOMEscan 1 μM, EGFR(E746-A750del); format: binding; settings: 1000 nM; Entrez EGFR; read-out: Percent Control
T18 construct: purchased Eurofins DiscoverX KINOMEscan
Text: as §2

CSNK1G1 = molecular target: T19, CSNK1G1 (Homo sapiens, UniProt Q9HCP0); assay: KINOMEscan 1 μM, CSNK1G1; format: binding; settings: 1000 nM; Entrez CSNK1G1; read-out: Percent Control
T19 construct: purchased Eurofins DiscoverX KINOMEscan
Text: as §2

CDK8 = molecular target: T20, CDK8 (Homo sapiens, UniProt P49336); assay: KINOMEscan 1 μM, CDK8; format: binding; settings: 1000 nM; Entrez CDK8; read-out: Percent Control
T20 construct: purchased Eurofins DiscoverX KINOMEscan
Text: as §2

MARK3 [4] = molecular target: T1, MARK3; assay: KINOMEscan 1 μM, MARK3; format: binding; settings: 1000 nM; Entrez MARK3; read-out: Percent Control
Text: as §2

WNK1 = molecular target: T21, WNK1 (Homo sapiens, UniProt Q9H4A3); assay: DiscoverX KINOMEscan binding assay at 1 μM, WNK1; settings: Compound Concentration 1000 nM, read-out: Percent Control
T21 construct: purchased Eurofins DiscoverX KINOMEscan
Text: as §2

[5] = molecular target: T22, JAK1(JH1domain-catalytic) (Homo sapiens, UniProt P23458); assay: KINOMEscan 1 μM, JAK1(JH1domain-catalytic); format: binding; settings: 1000 nM; Entrez JAK1; read-out: Percent Control
T22 construct: JAK1(JH1domain-catalytic); purchased Eurofins DiscoverX KINOMEscan
Text: as §2

MEK4 = molecular target: T23, MEK4 (Homo sapiens, UniProt P45985); assay: KINOMEscan 1 μM, MEK4; format: binding; settings: 1000 nM; Entrez MAP2K4; read-out: Percent Control
T23 construct: purchased Eurofins DiscoverX KINOMEscan
Text: as §2

PIK3C2G = molecular target: T24, PIK3C2G (Homo sapiens, UniProt O75747); assay: KINOMEscan 1 μM, PIK3C2G; format: binding; settings: 1000 nM; Entrez PIK3C2G; read-out: Percent Control
T24 construct: purchased Eurofins DiscoverX KINOMEscan
Text: as §2

PLK2 = molecular target: T25, PLK2 (Homo sapiens, UniProt Q9NYY3); assay: DiscoverX KINOMEscan binding assay at 1 μM, PLK2; settings: Compound Concentration 1000 nM, read-out: Percent Control
T25 construct: purchased Eurofins DiscoverX KINOMEscan
Text: as §2

PAK4 = molecular target: T26, PAK4 (Homo sapiens, UniProt O96013); assay: KINOMEscan 1 μM, PAK4; format: binding; settings: 1000 nM; Entrez PAK4; read-out: Percent Control
T26 construct: purchased Eurofins DiscoverX KINOMEscan
Text: as §2

FLT1 = molecular target: T27, FLT1 (Homo sapiens, UniProt P17948); assay: KINOMEscan 1 μM, FLT1; format: binding; settings: 1000 nM; Entrez FLT1; read-out: Percent Control
T27 construct: purchased Eurofins DiscoverX KINOMEscan
Text: as §2

ROCK2 = molecular target: T28, ROCK2 (Homo sapiens, UniProt O75116); assay: DiscoverX KINOMEscan binding assay at 1 μM, ROCK2; settings: Compound Concentration 1000 nM, read-out: Percent Control
T28 construct: purchased Eurofins DiscoverX KINOMEscan
Text: as §2

AMPK-alpha2 = molecular target: T29, AMPK-alpha2 (Homo sapiens, UniProt P54646); assay: KINOMEscan 1 μM, AMPK-alpha2; format: binding; settings: 1000 nM; Entrez PRKAA2; read-out: Percent Control
T29 construct: purchased Eurofins DiscoverX KINOMEscan
Text: as §2

[6] = molecular target: T30, RSK1(Kin.Dom.2-C-terminal) (Homo sapiens, UniProt Q15418); assay: KINOMEscan 1 μM, RSK1(Kin.Dom.2-C-terminal); format: binding; settings: 1000 nM; Entrez RPS6KA1; read-out: Percent Control
T30 construct: RSK1(Kin.Dom.2-C-terminal); purchased Eurofins DiscoverX KINOMEscan
Text: as §2

EPHB3 = molecular target: T31, EPHB3 (Homo sapiens, UniProt P54753); assay: KINOMEscan 1 μM, EPHB3; format: binding; settings: 1000 nM; Entrez EPHB3; read-out: Percent Control
T31 construct: purchased Eurofins DiscoverX KINOMEscan
Text: as §2

T1 sequence (P27448 whole entry): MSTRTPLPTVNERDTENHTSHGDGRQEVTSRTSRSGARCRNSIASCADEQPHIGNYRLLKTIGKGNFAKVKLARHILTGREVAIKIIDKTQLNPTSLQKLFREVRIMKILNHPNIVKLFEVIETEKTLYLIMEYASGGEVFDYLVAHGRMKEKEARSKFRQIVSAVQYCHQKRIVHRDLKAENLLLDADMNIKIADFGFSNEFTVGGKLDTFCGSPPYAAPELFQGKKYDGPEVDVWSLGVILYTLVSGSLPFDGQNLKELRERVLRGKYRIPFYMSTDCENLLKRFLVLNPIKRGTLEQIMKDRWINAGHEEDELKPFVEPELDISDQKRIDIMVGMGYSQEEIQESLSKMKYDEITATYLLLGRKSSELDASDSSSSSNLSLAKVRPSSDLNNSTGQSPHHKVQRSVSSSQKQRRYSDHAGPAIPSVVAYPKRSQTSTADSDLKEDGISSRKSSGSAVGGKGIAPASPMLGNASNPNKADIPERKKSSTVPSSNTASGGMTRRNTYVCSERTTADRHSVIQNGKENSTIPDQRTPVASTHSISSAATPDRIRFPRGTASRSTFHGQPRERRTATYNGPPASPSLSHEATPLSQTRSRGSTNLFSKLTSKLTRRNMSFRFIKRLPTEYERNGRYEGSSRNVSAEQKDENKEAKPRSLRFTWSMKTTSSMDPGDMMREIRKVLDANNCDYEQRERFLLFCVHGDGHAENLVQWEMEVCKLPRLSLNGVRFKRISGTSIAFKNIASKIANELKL
T9 sequence (P07949 29-1114 V804L): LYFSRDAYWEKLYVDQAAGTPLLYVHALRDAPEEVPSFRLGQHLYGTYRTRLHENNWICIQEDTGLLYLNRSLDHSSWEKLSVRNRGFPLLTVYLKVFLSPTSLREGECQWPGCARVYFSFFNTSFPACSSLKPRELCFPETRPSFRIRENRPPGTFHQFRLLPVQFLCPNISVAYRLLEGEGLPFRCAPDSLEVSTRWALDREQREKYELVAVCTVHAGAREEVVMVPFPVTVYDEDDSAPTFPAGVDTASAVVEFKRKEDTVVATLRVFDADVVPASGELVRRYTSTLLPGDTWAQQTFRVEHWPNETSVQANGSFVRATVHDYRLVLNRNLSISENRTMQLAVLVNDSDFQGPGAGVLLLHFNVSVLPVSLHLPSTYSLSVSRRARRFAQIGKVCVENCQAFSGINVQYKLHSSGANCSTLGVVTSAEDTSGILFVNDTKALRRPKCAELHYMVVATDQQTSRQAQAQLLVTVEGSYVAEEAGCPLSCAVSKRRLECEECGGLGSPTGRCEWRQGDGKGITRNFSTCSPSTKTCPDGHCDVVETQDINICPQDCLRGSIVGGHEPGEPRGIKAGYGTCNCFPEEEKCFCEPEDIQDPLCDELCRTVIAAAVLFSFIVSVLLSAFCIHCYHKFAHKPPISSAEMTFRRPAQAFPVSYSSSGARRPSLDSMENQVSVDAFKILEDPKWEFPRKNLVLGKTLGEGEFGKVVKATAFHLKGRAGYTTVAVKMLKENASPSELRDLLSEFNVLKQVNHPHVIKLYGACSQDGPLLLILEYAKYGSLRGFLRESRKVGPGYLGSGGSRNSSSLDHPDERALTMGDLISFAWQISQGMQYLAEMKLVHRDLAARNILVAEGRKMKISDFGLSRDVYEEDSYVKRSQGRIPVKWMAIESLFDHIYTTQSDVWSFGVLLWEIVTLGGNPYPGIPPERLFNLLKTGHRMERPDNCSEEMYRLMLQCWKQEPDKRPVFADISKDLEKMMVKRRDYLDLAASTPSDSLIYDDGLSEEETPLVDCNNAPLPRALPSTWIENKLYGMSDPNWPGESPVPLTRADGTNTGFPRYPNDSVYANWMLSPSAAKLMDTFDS
T6 sequence (Q9BXA7 whole entry): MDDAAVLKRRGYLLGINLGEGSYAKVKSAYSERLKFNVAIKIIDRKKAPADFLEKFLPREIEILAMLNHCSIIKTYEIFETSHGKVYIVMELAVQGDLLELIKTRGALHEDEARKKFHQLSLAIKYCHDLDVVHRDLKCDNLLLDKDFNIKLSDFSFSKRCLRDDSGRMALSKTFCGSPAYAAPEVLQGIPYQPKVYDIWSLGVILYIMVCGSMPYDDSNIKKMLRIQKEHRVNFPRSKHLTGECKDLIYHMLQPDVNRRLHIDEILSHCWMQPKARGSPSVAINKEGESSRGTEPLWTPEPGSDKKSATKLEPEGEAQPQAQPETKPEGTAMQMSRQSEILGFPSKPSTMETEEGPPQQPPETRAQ
T24 sequence (O75747 whole entry): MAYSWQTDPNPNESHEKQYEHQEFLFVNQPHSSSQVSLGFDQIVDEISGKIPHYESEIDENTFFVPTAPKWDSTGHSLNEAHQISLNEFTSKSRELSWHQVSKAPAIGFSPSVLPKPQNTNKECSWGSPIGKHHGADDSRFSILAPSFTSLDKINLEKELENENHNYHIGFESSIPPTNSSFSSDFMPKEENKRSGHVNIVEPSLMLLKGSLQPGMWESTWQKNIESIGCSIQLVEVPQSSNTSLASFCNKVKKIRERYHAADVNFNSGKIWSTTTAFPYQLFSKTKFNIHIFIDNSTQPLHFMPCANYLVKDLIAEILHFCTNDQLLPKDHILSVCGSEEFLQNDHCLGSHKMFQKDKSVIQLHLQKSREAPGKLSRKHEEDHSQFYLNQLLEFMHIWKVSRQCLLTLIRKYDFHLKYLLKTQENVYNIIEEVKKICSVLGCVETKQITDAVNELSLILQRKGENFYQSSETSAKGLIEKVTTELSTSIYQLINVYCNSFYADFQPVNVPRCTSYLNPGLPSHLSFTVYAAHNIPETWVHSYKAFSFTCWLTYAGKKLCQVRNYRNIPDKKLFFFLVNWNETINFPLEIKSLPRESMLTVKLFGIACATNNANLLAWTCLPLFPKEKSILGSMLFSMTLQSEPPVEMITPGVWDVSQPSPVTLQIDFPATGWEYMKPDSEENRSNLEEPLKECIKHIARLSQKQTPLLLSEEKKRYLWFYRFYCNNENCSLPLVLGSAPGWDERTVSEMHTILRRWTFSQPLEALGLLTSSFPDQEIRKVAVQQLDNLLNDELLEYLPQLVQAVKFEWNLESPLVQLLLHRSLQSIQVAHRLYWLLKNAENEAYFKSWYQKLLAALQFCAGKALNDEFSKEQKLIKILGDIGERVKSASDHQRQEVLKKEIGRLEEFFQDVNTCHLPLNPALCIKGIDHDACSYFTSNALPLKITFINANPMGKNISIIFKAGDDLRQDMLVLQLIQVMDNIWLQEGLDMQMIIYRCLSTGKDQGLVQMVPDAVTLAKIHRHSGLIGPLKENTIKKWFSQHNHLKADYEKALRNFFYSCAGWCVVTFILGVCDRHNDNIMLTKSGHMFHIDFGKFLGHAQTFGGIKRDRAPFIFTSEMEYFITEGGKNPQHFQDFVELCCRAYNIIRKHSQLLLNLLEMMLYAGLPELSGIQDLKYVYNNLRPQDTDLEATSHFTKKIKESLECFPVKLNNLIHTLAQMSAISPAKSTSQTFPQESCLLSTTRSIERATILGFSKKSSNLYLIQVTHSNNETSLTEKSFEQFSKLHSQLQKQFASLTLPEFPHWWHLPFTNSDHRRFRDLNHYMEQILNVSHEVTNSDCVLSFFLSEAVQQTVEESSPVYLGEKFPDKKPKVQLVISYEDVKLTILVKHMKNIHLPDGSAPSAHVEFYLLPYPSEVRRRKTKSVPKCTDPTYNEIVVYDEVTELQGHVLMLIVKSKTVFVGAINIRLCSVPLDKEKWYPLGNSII
T4 sequence (P0C1S8 whole entry): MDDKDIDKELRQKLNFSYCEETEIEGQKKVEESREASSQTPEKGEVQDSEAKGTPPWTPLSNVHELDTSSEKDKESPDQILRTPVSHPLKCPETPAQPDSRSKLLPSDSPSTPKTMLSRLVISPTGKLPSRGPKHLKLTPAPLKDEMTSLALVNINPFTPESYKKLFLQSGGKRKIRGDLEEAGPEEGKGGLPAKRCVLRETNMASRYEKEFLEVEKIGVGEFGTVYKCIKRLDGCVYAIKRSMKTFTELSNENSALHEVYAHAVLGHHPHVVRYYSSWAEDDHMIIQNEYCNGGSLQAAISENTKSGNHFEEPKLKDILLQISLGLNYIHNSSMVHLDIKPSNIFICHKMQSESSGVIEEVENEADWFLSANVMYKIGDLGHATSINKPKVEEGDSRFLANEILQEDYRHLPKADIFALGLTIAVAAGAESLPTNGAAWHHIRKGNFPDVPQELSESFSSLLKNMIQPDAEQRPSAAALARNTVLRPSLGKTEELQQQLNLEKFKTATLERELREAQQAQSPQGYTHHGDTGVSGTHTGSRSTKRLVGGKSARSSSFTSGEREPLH
T18 sequence (P00533 with tags, fused parts or gaps DEL746-750 limits assumed): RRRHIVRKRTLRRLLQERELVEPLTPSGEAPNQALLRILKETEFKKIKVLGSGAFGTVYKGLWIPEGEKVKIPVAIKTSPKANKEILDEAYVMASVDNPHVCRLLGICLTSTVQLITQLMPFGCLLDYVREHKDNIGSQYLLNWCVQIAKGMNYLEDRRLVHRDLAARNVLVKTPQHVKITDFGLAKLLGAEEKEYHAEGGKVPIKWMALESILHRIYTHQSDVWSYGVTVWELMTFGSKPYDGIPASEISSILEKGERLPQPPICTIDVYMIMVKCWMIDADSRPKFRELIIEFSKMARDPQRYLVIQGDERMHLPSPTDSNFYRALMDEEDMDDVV
T16 sequence (P11802 whole entry): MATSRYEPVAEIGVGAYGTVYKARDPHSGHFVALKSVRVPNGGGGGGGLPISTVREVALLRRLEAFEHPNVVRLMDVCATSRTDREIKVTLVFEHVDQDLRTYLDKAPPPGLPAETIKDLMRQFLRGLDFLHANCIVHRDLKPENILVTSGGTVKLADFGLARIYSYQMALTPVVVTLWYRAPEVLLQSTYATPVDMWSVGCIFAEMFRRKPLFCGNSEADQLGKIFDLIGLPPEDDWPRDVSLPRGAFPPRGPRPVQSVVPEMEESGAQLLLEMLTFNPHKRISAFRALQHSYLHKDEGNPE

O=C(O)c1ccc(-c2coc3ncc(-c4ccccc4)cc23)cc1Cl [SGC-CAMKK2-1N (UNC-YL-83)]
remaining binding at 1 µM (MARK3 [1]): 61% | remaining binding at 1 µM (PIP5K2B): 74% | remaining binding at 1 µM (PDGFRA): 74% | remaining binding at 1 µM (WEE2): 93% | remaining binding at 1 µM (ALK(C1156Y)): 0% | remaining binding at 1 µM (TSSK1B): 83% | remaining binding at 1 µM (TIE2): 79% | remaining binding at 1 µM (IKK-epsilon): 98% | remaining binding at 1 µM (RET(V804L) [2]): 90% | remaining binding at 1 µM (PFTAIRE2): 76% | remaining binding at 1 µM (CSK): 60% | remaining binding at 1 µM (HUNK): 87% | remaining binding at 1 µM (YES): 87% | remaining binding at 1 µM (PHKG2): 68% | remaining binding at 1 µM (PIM3): 66%

Cc1cccc(-c2cnc3occ(-c4ccc(C(=O)O)c(C5CCCC5)c4)c3c2)c1 [SGC-CAMKK2-1 (YL-36)]
remaining binding at 1 µM (CDK4): 100% | remaining binding at 1 µM (RET(V804L) [3]): 94% | remaining binding at 1 µM (PKN1): 84% | remaining binding at 1 µM (EGFR(E746-A750del)): 100% | remaining binding at 1 µM (CSNK1G1): 100% | remaining binding at 1 µM (CDK8): 72% | remaining binding at 1 µM (MARK3 [4]): 100% | remaining binding at 1 µM (WNK1): 100% | remaining binding at 1 µM [5]: 85% | remaining binding at 1 µM (MEK4): 100% | remaining binding at 1 µM (PIK3C2G): 81% | remaining binding at 1 µM (PLK2): 100% | remaining binding at 1 µM (PAK4): 69% | remaining binding at 1 µM (FLT1): 93% | remaining binding at 1 µM (ROCK2): 100% | remaining binding at 1 µM (AMPK-alpha2): 100% | remaining binding at 1 µM [6]: 80% | remaining binding at 1 µM (EPHB3): 96%
